According to patent US11236055B2 (Venenum Biodesign, LLC, priority 2016, dated 2022):

Legend:
[1] = target: T1, human TGR5 receptor (Homo sapiens, UniProt Q8TDU6); experiment: Human TGR5 cAMP production assay; format: cell-based; conditions: human TGR5, luminescent cAMP assay; coded A-D; read-out: Human TGR5 Lum. cAMP Activity (EC50)
T1 construct: host or cells: CHO-K1 (hTGR5-CHO cells)
T1 sequence (Q8TDU6 1-330): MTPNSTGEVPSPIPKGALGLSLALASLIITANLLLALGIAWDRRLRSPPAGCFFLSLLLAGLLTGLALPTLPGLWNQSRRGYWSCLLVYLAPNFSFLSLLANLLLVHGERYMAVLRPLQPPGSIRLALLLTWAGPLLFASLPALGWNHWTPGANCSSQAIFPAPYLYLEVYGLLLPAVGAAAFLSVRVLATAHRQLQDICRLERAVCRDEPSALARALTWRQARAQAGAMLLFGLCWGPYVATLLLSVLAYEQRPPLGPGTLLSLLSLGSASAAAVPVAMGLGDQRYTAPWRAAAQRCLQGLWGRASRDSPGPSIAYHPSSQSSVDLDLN
Summary of the method: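 CHO-K1 cells stably expressing human TGR5, with IBMX and cAMP antibody, were exposed to half-log serially diluted compound for 1 h at room temperature. cAMP measured by enzyme-fragment complementation luminescence (XS+ kit) after overnight incubation; EC50 values reported.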

[2] = target: T2, mouse TGR5 receptor (Mus musculus, UniProt Q80SS6); experiment: Mouse TGR5 cAMP production assay (HTRF, Cisbio cAMP HiRange); format: cell-based; conditions: HEK293-EBNA cells overexpressing mouse TGR5, HTRF cAMP HiRange; coded A-D
T2 construct: expressed in transfected cells; host or cells: HEK293-EBNA (293 c18, ATCC CRL10852), Hygromycin B selection
T2 sequence (Q80SS6 1-329): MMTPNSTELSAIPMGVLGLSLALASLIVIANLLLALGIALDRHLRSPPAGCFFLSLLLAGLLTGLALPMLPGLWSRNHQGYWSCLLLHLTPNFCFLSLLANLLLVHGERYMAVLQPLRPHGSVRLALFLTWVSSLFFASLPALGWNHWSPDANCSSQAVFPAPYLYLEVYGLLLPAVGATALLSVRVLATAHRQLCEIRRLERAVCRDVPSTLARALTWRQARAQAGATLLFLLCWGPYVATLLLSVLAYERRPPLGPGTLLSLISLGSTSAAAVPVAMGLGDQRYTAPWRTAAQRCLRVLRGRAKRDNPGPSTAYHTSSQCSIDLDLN
Summary of the method: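 cAMP read by HTRF competition after 1 h room-temperature compound exposure of mouse TGR5-overexpressing HEK293-EBNA cells. Cells were suspended in serum-free DMEM containing 500 μM IBMX; compounds ran as 12-point half-log dilutions in duplicate; EC50 derived.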

[3] = Pharmacokinetic profile in mice; format: in vivo; conditions: mouse; fasted male Hilltop mice, 10 mg/kg oral gavage, plasma, mean of three mice
Protocol: Pharmacokinetic Profile in Mice
In this series of studies, the pharmacokinetic profile characteristics of compounds of the present invention were evaluated. The plasma concentration levels of the compounds were monitored in the blood stream (i.e., plasma) after oral gavage using Cmax, and area under the curve (AUC).
8 week old male Hilltop mice were fasted overnight. Animals were randomized into groups (n=9) by body weight. Mice were dosed with 10 mg/kg compound (in 20% PEG400/80% 0.5% carboxymethylcellulose (medium viscosity)+0.25% Tween-80) at a volume of 10 mL/kg through oral gavage. Blood was collected via orbital bleeding at 0, 0.25, 0.5, 1, 2, and 4 h post-dose, with no one mouse having more than 3 blood draws. Blood was collected in EDTA coated tubes. Samples were stored at −20° C. until analysis.
Quantitation of compound levels in plasma was accomplished by LC-MS/MS analysis. Standard curve and quality control samples were prepared in male CD-1 mouse plasma containing EDTA K^2+ as an anticoagulant at final concentrations ranging from 500 to 0.1 ng/mL. The plasma samples, calibration curve standards, and quality control samples were prepared in an identical method in a 96-well deep plate (1 mL) with a quenching solution (1:1 mixed acetonitrile:methanol containing the internal standard Reserpine @ 400 ng/mL). Low volume samples were supplemented with CD-1 mouse plasma. The plate was mixed on multi-tube votex for 1 min and centrifuged at 4000 rpm for 30 min at 4° C. (Sorvall® Super T21) before LC-MS/MS analysis. LC conditions were developed and optimized based on each compound as needed. The outlet of the column was coupled to AB Sciex 4000 QTrap Mass Spectrometer (AB Sciex, Brugg Switzerland). Detection was carried out using multiple reaction monitoring mode with positive-ion detection focusing. The pharmacokinetic parameters were derived from the plasma-time data and calculated using the standard non-compartmental method with WinNonlin (Pharsight, Mountain View, Calif.) or PK Solver (Comp. Meth. Prog. Biomed. (2010), 99, 306-314).
Values reported are the mean plasma concentration of three mice.

[4] = target: T2, mouse TGR5 receptor; experiment: Mouse TGR5 cAMP production assay (luminescent, DiscoveRx cAMP XS+); format: cell-based; conditions: HEK293-EBNA cells overexpressing mouse TGR5, luminescent cAMP XS+; coded A-D; read-out: Mouse TGR5 Lum. cAMP Activity (EC50)
Description: Mouse TGR5 cAMP Production Assay
We evaluated compounds of the present invention for their ability to induce cAMP production in HEK-EBNA cells overexpressing the mouse TGR5 receptor. Human embryonic kidney cells (HEK293-EBNA) stably expressing mouse TGR5 receptor were established using the following procedure. Specifically, a commercially-obtained gene encoding mouse TGR5 (accession number BC116914) from Thermo Scientific (Waltham, Mass.) was cloned into an episomal expression vector. The resulting expression plasmid was then transfected into 293 c18 (ATCC® CRL10852™) cells, which express the Epstein-Barr virus nuclear antigen EBNA1 and can support the replication of episomal vectors. Selection for the plasmid was maintained with Hygromycin B. Cells were cultured and maintained in DMEM (Sigma; cat #6429) supplemented with 10% Fetal Bovine Serum, 1% penicillin/streptomycin, 2 mM L-alanine L-glutamine (GlutaMax), and 250 μg/mL Hygromycin.
Two cAMP production assays were developed.
1. Luminescent cAMP Production Assay
In this first cAMP production assay, the cAMP production was measured using DiscoveRx's cAMP XS+ kit following the manufacturer's recommended protocol.
Briefly, HEK293-EBNA cells stably overexpressing mouse TGR5 were harvested using non-enzymatic cell dissociation buffer (Sigma-Aldrich, St. Louis, Mo.), spun down, then resuspended in serum-free DMEM with 500 μM IBMX at a density of 1.25×10^6 cells/mL. 500 μL of cAMP antibody solution was added to […] of cell suspension and incubated at room temperature for 20 min.
Test compounds were serially diluted (half-log dilutions) in DMSO and then further diluted 1:50 in PBS, 10 mM HEPES buffer. 2 μL of serially diluted compound was added to a 384-well low volume plate (Greiner cat #784075) and centrifuged briefly. 2 μL of the cell/cAMP antibody mixture was then added to each compound-containing well and allowed to incubate at room temperature for one (1) hour. Following incubation, the XS+ kits' ED/Lysis/CL Substrate Working Solution was prepared following the manufacturer's recommended protocol and 4 μL was added to each well of the plate. The plate was then incubated for one (1) hour at room temperature. Following incubation, 4 μL of (Enzyme Acceptor) EA reagent was added to the plate and allowed to incubate overnight at room temperature. Luminescent signal was then detected using the Viewlux instrument (Perkin-Elmer, Waltham, Mass.).
In Table 33, EC50 values for both human and mouse cells were determined according to the TGR5 cAMP assays described above.

EC50 [1] [nM] | EC50 [2] [nM] | Cmax [3] [ng/mL] | EC50 [4] [nM] | Compound
< 100 | < 100 | 3.1 |  | Cc1cnccc1-c1cccc(C(C)(C)N(CCCN/C(=N\C#N)NCCC(=O)O)S(=O)(=O)c2cccc(Cl)c2C)c1 [Compound 25, (E)-3-(3-(3-((3-chloro-2-methyl-N-(2-(3-(3-methylpyridin-4-yl)phenyl)propan-2-yl)phenyl)sulfonamido)propyl)-2-cyanoguanidino)propanoic acid]
< 100 | < 100 | 2.3 |  | CCc1cnccc1-c1cccc([C@H](C)N(CCCCC(=O)NCCS(=O)(=O)O)S(=O)(=O)c2cccc(Cl)c2C)c1 [Compound 20AS, (S)-2-(5-(3-chloro-N-(1-(3-(3-ethylpyridin-4-yl)phenyl)ethyl)-2-methylphenylsulfonamido)pentanamido)ethanesulfonic acid]
< 100 | < 100 | 109 |  | Cc1cnccc1-c1cccc(C(C)(C)N(CCCNC(=O)NCCS(N)(=O)=O)S(=O)(=O)c2cccc(Cl)c2C)c1 [Compound 29AB]
100 to 999 | 100 to 999 | 2330 |  | CNC(=O)C[C@H](NS(=O)(=O)c1ccccc1C(F)(F)F)c1cccc(-c2ccncc2C)c1 [Compound 5AZ, (S)-N-methyl-3-(3-(3-methylpyridin-4-yl)phenyl)-3-(2-(trifluoromethyl)phenylsulfonamido)propanamide]
< 100 | < 100 | 4.5 |  | CCc1cnccc1-c1cccc(C2CN(C(=O)COCC(=O)O)CCN2S(=O)(=O)c2cccc(Cl)c2C)c1 (stereo not shown) [Compound 46AB, 2-(2-(4-((3-chloro-2-methylphenyl)sulfonyl)-3-(3-(3-ethylpyridin-4-yl)phenyl)piperazin-1-yl)-2-oxoethoxy)acetic acid]
< 100 | < 100 | 269 |  | Cc1cnccc1-c1cccc(C(C)(C)N(CCCC(=O)NCC(N)=O)S(=O)(=O)c2cccc(Cl)c2C)c1 [Compound 21AC, N-(2-amino-2-oxoethyl)-4-(3-chloro-2-methyl-N-(2-(3-(3-methylpyridin-4-yl)phenyl)propan-2-yl)phenylsulfonamido)butanamide]
< 100 | < 100 | 35.8 |  | Cc1cnccc1-c1cccc(C(C)(C)N(CCCNC(=O)CS(=O)(=O)O)S(=O)(=O)c2cccc(Cl)c2C)c1 [Compound 31AB, 2-((3-(3-chloro-2-methyl-N-(2-(3-(3-methylpyridin-4-yl)phenyl)propan-2-yl)phenylsulfonamido)propyl)amino)-2-oxoethanesulfonic acid]
< 100 |  |  | 1000 to 30000 | COc1cnccc1-c1cccc([C@H](C)NS(=O)(=O)c2cccc(C(F)(F)F)c2)c1 [Compound 1AZ]
100 to 999 |  |  | 1000 to 30000 | C[C@@H](NS(=O)(=O)c1cccc(C(F)(F)F)c1)c1cccc(-c2ccncc2F)c1 [Compound 1BD]
100 to 999 |  |  | 1000 to 30000 | COc1cnccc1-c1cccc(C(C)(C)NS(=O)(=O)c2cccc(Br)c2)c1 [Compound 2AT]
100 to 999 |  |  | 100 to 999 | C[C@H](NS(=O)(=O)c1cccc(C(F)(F)F)c1)c1cccc(-c2ccncc2Cl)c1 [Compound 1AX]
1000 to 30000 |  |  | > 30000 | O=S(=O)(NCc1cccc(-c2cc(C(F)(F)F)ncn2)c1)c1cccc(C(F)(F)F)c1 [Compound 1BJ]
1000 to 30000 |  |  | 1000 to 30000 | O=S(=O)(NCc1cc(-c2ccncc2Cl)ccc1F)c1cccc(C(F)(F)F)c1 [Compound 1AV]
100 to 999 |  |  | 1000 to 30000 | CC(C)(NS(=O)(=O)c1cccc(C(F)(F)F)c1)c1cccc(-c2ccnc(N)c2)c1 [Compound 1AL]
1000 to 30000 |  |  | 1000 to 30000 | O=[N+]([O-])c1cccc(S(=O)(=O)NCc2cccc(-c3ccncc3)c2)c1 [Compound 2AN]
100 to 999 |  |  | 100 to 999 | C[C@@H](NS(=O)(=O)c1cccc(C(F)(F)F)c1)c1cccc(-c2ccncc2Cl)c1 [Compound 1BC]
< 100 |  |  | 100 to 999 | Cc1cnccc1-c1cccc([C@@H](C)NS(=O)(=O)c2cccc(C(F)(F)F)c2)c1 [Compound 5AH, (R)-N-(1-(3-(3-methylpyridin-4-yl)phenyl)ethyl)-3-(trifluoromethyl)benzenesulfonamide]
< 100 |  |  | 100 to 999 | CCOc1cnccc1-c1cccc(C(C)(C)NS(=O)(=O)c2cccc(C(F)(F)F)c2)c1 [Compound 8AB, N-(2-(3-(3-ethoxypyridin-4-yl)phenyl)propan-2-yl)-3-(trifluoromethyl)benzenesulfonamide]
1000 to 30000 |  |  | 1000 to 30000 | Cc1noc(C)c1-c1cccc(CNS(=O)(=O)c2ccccc2C(F)(F)F)c1 [Compound 2AC]
100 to 999 |  |  | 1000 to 30000 | C[C@H](NS(=O)(=O)c1cccc(Br)c1)c1cccc(-c2ccncc2Cl)c1 [Compound 2BR]
1000 to 30000 |  |  | > 30000 | Cc1ccccc1S(=O)(=O)NCc1cccc(-c2ccncc2)c1 [Compound 2AP]
